The experiment has as its target T1, Amine oxidase [flavin-containing] A (Homo sapiens, UniProt P21397).
T1 sequence (P21397 whole entry): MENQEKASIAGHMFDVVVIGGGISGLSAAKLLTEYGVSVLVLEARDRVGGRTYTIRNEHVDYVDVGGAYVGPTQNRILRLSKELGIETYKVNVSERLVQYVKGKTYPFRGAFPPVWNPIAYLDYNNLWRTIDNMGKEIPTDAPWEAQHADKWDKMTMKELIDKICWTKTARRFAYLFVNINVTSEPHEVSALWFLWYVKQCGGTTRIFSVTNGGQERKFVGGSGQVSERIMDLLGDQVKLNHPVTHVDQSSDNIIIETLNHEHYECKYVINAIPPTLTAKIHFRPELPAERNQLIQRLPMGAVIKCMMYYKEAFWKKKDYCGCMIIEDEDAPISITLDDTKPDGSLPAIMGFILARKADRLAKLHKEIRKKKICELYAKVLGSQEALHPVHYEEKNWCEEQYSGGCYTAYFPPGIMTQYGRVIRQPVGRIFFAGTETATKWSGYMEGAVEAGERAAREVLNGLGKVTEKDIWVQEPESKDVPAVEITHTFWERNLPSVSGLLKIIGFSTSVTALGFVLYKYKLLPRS
Description: Fluorescence-Based (Inhibitor)-Screening Assay: In order to monitor MAO enzymatic activities and/or their inhibition rate by inhibitor(s) of interest, a fluorescence-based (inhibitor)-screening assay was set up. 3-(2-Aminophenyl)-3-oxopropanamine (kynuramine dihydrobromide, Sigma Aldrich), a non fluorescent compound was chosen as a substrate. Kynuramine is a non-specific substrate for both MAO-A and MAO-B activities. While undergoing oxidative deamination by MAO activities, kynuramine is converted into 4-hydroxyquinoline (4-HQ), a resulting fluorescent product.The monoamine oxidase activity was estimated by measuring the conversion of kynuramine into 4-hydroxyquinoline. Assays were conducted in 96-well black plates with clear bottom (Corning) in a final volume of 100 uL. The assay buffer was 100 mM HEPES, pH 7.5. […] Clorgyline and Deprenyl (Sigma Aldrich) was used as a control for specific inhibition of MAO-A and MAO-B respectively. After leaving the enzyme(s) interacting with the inhibitor, KM of kynuramine was added to each reaction for MAO-B and MAO-A assay respectively, and the reaction was left for 1 hour at 37° C. in the dark. The oxidative deamination of the substrate was stopped by adding 50 uL of NaOH 2N. […] The IC50 values of each inhibitor were calculated with GraphPad Prism Software.

The source of these data is ChEMBL document CHEMBL3886143, “(Hetero)aryl cyclopropylamine compounds as LSD1 inhibitors” (2016).

`N[C@H]1CC[C@H](N[C@@H]2C[C@H]2c2ccccc2)CC1`: the Ki was > 40 µM.
